The record followed here is patent US9827320B2, “Compositions with reduced bitter taste perception” (The Procter & Gamble Company, priority 2014, dated 2017).

Structures can show the parent of a compound that is named as a salt.

The test system of the first test is Human fungiform taste bud cells. Kind of test: Assay for Taste Receptors (calcium fluorescence, FLIPR). Type of test: cell-based. Particulars: FIG. 5B; 0.5 mM 1,10-phenanthroline, 0.5 mM saccharin, 3% propylene glycol; without polyquaternium-2.
For the compound `c1cnc2c(c1)ccc1cccnc12` [1,10-phenanthroline], the “bitterness of the component itself” value is listed as “very bitter”.

Regarding `CC(O)CO` (stereo not drawn) [propylene glycol], the “bitterness of the component itself” value is “very bitter”.

For `O=C1NS(=O)(=O)c2ccccc21` [saccharin], the “bitterness of the component itself” value is on record as “very bitter”.

Staying with this test, now noted: FIG. 5C; 2 mM; without polyquaternium-2.
Take `CNC(N)=S` [N-methylthiourea]: the “bitterness of the component itself” value is reported as “only slightly bitter”.

As to `N#C[C@H](O[C@@H]1O[C@H](CO[C@@H]2O[C@H](CO)[C@@H](O)[C@H](O)[C@H]2O)[C@@H](O)[C@H](O)[C@H]1O)c1ccccc1` [amygdalin], the “bitterness of the component itself” value is recorded as “only slightly bitter”.

With `N=C(NCCCCCCNC(=N)NC(=N)Nc1ccc(Cl)cc1)NC(=N)Nc1ccc(Cl)cc1` [chlorhesidice], the “bitterness of the component itself” value is given as “only slightly bitter”.

For the compound `Cc1ccccc1C(OCCN(C)C)c1ccccc1` (stereo not drawn) [orphenadrine hydrochloride], the “bitterness of the component itself” value is “most bitter component”.

Take `CCN(CC)CCNC(=O)c1ccc(N)cc1` [procainamide hydrochloride]: the “bitterness of the component itself” value is “only slightly bitter”.

`O=C1CCCCCN1` [ε-Caprolactam]: the “bitterness of the component itself” value is on record as “only slightly bitter”.
